Experimental data from US20260098030A1, “NEGATIVE ALLOSTERIC MODULATORS OF METABOTROPIC GLUTAMATE RECEPTOR 2” (Vanderbilt University, priority 2022, published 2026).

Biological target: T1, rat mGlu2 (Rattus norvegicus, UniProt P31421)
T1 construct: expressed in transfected cells; host or cells: HEK-293 cells stably co-expressing GIRK channels
Assay: mGlu GIRK cell-based thallium flux assay, rat mGlu2
Conditions: HEK-293 cells co-expressing rat mGlu2 and GIRK, EC80 glutamate
Experimental: Human embryonic kidney (HEK-293) cell lines stably co-expressing human or rat mGlu2 and G protein-coupled inwardly rectifying potassium (GIRK) channels, or human mGlu3 and GIRK, were used for in vitro evaluation of compound activity in thallium flux assay using a fluorescent thallium indicator dye.
The day before the assay, GIRK cells co-expressing human mGlu3, human or rat mGlu2, as described above, were plated in black-walled, clear-bottomed, amine-coated 384-well plates at a density of 15,000 cells/20 μL/well in the assay medium (glutamine-depleted basal DMEM supplemented with 10% dialyzed FBS, 20 mM HEPES, 1 mM sodium pyruvate). Cells were incubated at 37° C. in the presence of 5% CO2. The next day, assay buffer (Hanks balanced salt solution, 20 mM HEPES, 4.16 mM sodium bicarbonate, pH 7.2) was prepared to dilute compounds and Thallos AM fluorescent dye solution. The 2× Thallos dye solution (final concentration 0.34 μM to the cells) was prepared by mixing the dye stock (2.97 mM in DMSO) to 1:1 with 10% pluronic acid before adding to the assay buffer. Cells were washed with assay buffer using a microplate washer to remove the medium, resulting in 20 μL of buffer remaining in each well. Immediately, 20 μL of 2× Thallos dye solution was added to cells, and incubated for one hour at 25° C. During the cell dye loading incubation period, a 10-point concentration serial dilution of compound was created from a 10 mM DMSO compound stock by performing a 1:3 serial dilution in DMSO using the Bravo liquid handler. The 2× compound plate was generated by transferring 0.24 μL of the diluted compound in each well to a daughter plate using an Echo acoustic liquid handler. This is further diluted in 40 μL assay buffer, resulting in a range from 30 μM to 1.5 nM final concentration in the assay. The agonist plate (5×) was prepared to include EC80 glutamate concentration (a concentration to elicit 80% of a maximally effective glutamate concentration) in thallium buffer (125 mM […], 1 mM magnesium sulfate, 1.8 mM calcium sulfate, 5 mM glucose, 10 mM HEPES, pH 7.2, 12.5 mM thallium sulfate).
After dye-loading, cell plates were washed with assay buffer to remove excess extracellular dye using a microplate washer, resulting in 20 μL of buffer remaining in each well. After a ten-minute equilibration period, cell, compound and agonist plates were loaded into a Hamamatsu μCell kinetic imaging plate reader equipped with liquid handler to monitor fluorescence changes at 480 nm excitation and 540 nm emission settings. Briefly, after collection of baseline fluorescence, 20 μL of compound was added and incubated for two minutes and twenty seconds. This is immediately followed by adding 10 μL of glutamate-thallium buffer to the wells containing compound. The fluorescent signal was monitored an additional 2.5 minutes after the glutamate addition. Multiple reference wells containing no compound received either no glutamate (for a baseline reference), EC80 glutamate, or ECmax glutamate (for normalization to maximum response). Fluorescence was measured throughout the experiment at a frequency of 1 measurement per every 2 seconds before the glutamate addition and a frequency of 1 measurement per every 1 second after the glutamate addition. Each compound concentration series occurred one time in each plate, and replicates from two or three plates were used in each experimental run. Thallium solutions were handled and disposed of according to guidelines from the Vanderbilt University Chemical Safety department.
Data were normalized using a static ratio function (F/F0) by dividing every fluorescent measurement by the initial fluorescent value for the corresponding well. The increase in signal resulting from the glutamate/thallium addition of the second add was measured by determining the slope from 3 seconds to 13 seconds after the addition. […]

T1 sequence (P31421 19-872): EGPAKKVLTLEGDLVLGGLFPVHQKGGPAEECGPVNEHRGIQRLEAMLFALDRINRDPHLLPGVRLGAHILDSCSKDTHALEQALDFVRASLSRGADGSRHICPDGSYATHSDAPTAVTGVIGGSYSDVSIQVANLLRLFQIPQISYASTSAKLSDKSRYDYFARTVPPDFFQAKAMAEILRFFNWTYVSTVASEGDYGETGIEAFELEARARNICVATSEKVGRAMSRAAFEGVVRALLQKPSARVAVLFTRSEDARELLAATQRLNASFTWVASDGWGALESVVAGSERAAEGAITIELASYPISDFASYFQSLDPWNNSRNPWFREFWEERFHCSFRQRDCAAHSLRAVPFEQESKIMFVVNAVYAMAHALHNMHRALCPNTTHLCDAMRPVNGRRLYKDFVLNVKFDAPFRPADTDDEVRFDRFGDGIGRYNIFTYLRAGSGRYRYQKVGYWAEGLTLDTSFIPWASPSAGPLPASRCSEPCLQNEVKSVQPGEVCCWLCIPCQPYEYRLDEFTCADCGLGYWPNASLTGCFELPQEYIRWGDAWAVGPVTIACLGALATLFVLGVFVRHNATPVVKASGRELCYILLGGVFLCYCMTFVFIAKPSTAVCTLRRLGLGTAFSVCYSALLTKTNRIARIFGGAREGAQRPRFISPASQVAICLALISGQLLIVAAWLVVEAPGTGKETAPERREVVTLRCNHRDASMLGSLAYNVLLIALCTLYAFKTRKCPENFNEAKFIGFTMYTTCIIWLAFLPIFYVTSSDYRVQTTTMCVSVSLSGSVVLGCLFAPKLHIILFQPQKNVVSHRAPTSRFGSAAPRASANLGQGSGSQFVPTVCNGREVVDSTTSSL

SMILES	IC50 [µM]
Cn1cc2c(-c3cc4c(cc3-c3ccc(F)cc3)C(=O)NC4)cccc2n1 [Compound 28, 6-(4-fluorophenyl)-5-(2-methyl-2H-indazol-4-yl)isoindolin-1-one]	1.93
O=C1NCc2cc(C3CCNC3)c(-c3ccc(F)cc3)cc21 (stereo not drawn) [Compound 83, 6-(4-fluorophenyl)-5-(pyrrolidin-3-yl)isoindolin-1-one]	> 10
CC(C)(O)c1ccc(-c2cc3c(cc2-c2ccc(F)cc2)C(=O)NC3)cn1 [Compound 50, 6-(4-fluorophenyl)-5-(6-(2-hydroxypropan-2-yl)pyridin-3-yl)isoindolin-1-one]	> 10
O=C1NCc2cc(-c3ccc4ncccc4c3)c(-c3ccc(F)cc3)cc21 [Compound 19, 6-(4-fluorophenyl)-5-(quinolin-6-yl)isoindolin-1-one]	4.31
Cn1cc2ccc(-c3cc4c(cc3-c3ccc(F)cc3F)C(=O)NC4)cc2n1 [Compound 25, 6-(2,4-difluorophenyl)-5-(2-methyl-2H-indazol-6-yl)isoindolin-1-one]	2.35
O=C1NCc2cc(-c3cccnc3C3CC3)c(-c3ccc(F)cc3)cc21 [Compound 43, 5-(2-cyclopropylpyridin-3-yl)-6-(4-fluorophenyl)isoindolin-1-one]	> 10
Cc1ccc(-c2cc3c(cc2-c2ccc(F)cc2)C(=O)NC3)cn1 [Compound 6, 6-(4-fluorophenyl)-5-(6-methylpyridin-3-yl)isoindolin-1-one]	2.46
Cc1n[nH]c2ccc(-c3cc4c(cc3-c3ccc(F)cc3)C(=O)NC4)cc12 [Compound 47, 6-(4-fluorophenyl)-5-(3-methyl-1H-indazol-5-yl)isoindolin-1-one]	> 10
O=C1NCc2cc(-c3ccc(C4CC4)nc3)c(-c3ccc(F)cc3)cc21 [Compound 26, 5-(6-cyclopropylpyridin-3-yl)-6-(4-fluorophenyl)isoindolin-1-one]	> 10
CC(C)c1ncccc1-c1cc2c(cc1-c1ccc(F)cc1)C(=O)NC2 [Compound 42, 6-(4-fluorophenyl)-5-(2-isopropylpyridin-3-yl)isoindolin-1-one]	7.55
CC(=O)Nc1ccc(-c2cc3c(cc2-c2ccc(F)cc2)C(=O)NC3)cn1 [Compound 36, N-(5-(6-(4-fluorophenyl)-1-oxoisoindolin-5-yl)pyridin-2-yl)acetamide]	> 10
CC1(C)CNCC=C1c1cc2c(cc1-c1ccc(F)cc1)C(=O)NC2 [Compound 76, 5-(3,3-dimethyl-1,2,3,6-tetrahydropyridin-4-yl)-6-(4-fluorophenyl)isoindolin-1-one]	> 10
COc1cc(C#N)cc(-c2cc3c(cc2-c2ccc(F)cc2F)C(=O)NC3)c1 [Compound 95, 3-(6-(2,4-difluorophenyl)-1-oxoisoindolin-5-yl)-5-methoxybenzonitrile]	1.44
Cc1ncccc1-c1cc2c(cc1-c1ccc(F)cc1)C(=O)NC2 [Compound 41, 6-(4-fluorophenyl)-5-(2-methylpyridin-3-yl)isoindolin-1-one]	> 10
O=C1NCc2cc(-c3cnc(C(F)(F)F)nc3)c(-c3ccc(F)cc3F)cc21 [Compound 86, 6-(2,4-difluorophenyl)-5-(2-(trifluoromethyl)pyrimidin-5-yl)isoindolin-1-one]	> 10
N#Cc1cc(-c2cc3c(cc2-c2ccc(F)cc2F)C(=O)NC3)ccc1F [Compound 93, 5-(6-(2,4-difluorophenyl)-1-oxoisoindolin-5-yl)-2-fluorobenzonitrile]	1.5
CN1CCN(c2ccc(-c3cc4c(cc3-c3ccc(F)cc3F)C(=O)NC4)cc2)CC1 [Compound 113, 6-(2,4-difluorophenyl)-5-(4-(4-methylpiperazin-1-yl)phenyl)isoindolin-1-one]	> 10
O=C1NCc2cc(-c3ccc4cnccc4c3)c(-c3ccc(F)cc3)cc21 [Compound 14, 6-(4-fluorophenyl)-5-(isoquinolin-6-yl)isoindolin-1-one]	2.25

SMILES	IC50 [µM]
Cn1cc2cccc(-c3cc4c(cc3-c3ccc(F)cc3)C(=O)NC4)c2n1 [Compound 17, 6-(4-fluorophenyl)-5-(2-methyl-2H-indazol-7-yl)isoindolin-1-one]	1.24
O=C1NCc2cc(-c3ccc4[nH]ccc4c3)c(-c3ccc(F)cc3)cc21 [Compound 49, 6-(4-fluorophenyl)-5-(1H-indol-5-yl)isoindolin-1-one]	> 10
CC1CC(c2cc3c(cc2-c2ccc(F)cc2)C(=O)NC3)CCN1 (stereo not drawn) [Compound 85, 6-(4-fluorophenyl)-5-(2-methylpiperidin-4-yl)isoindolin-1-one]	> 10
Cc1ncccc1-c1cc2c(cc1-c1ccc(F)cc1F)C(=O)NC2 [Compound 73, 6-(2,4-difluorophenyl)-5-(2-methylpyridin-3-yl)isoindolin-1-one]	4.41
CN(C)c1ccc(-c2cc3c(cc2-c2ccc(F)cc2)C(=O)NC3)cn1 [Compound 34, 5-(6-(dimethylamino)pyridin-3-yl)-6-(4-fluorophenyl)isoindolin-1-one]	> 10
Cc1cc(F)ncc1-c1cc2c(cc1-c1ccc(F)cc1F)C(=O)NC2 [Compound 81, 6-(2,4-difluorophenyl)-5-(6-fluoro-4-methylpyridin-3-yl)isoindolin-1-one]	1.14
Cc1nc(F)ccc1-c1cc2c(cc1-c1ccc(F)cc1)C(=O)NC2 [Compound 30, 5-(6-fluoro-2-methylpyridin-3-yl)-6-(4-fluorophenyl)isoindolin-1-one]	> 10
CN1CCCC(c2cc3c(cc2-c2ccc(F)cc2)C(=O)NC3)C1 (stereo not drawn) [Compound 65, 6-(4-fluorophenyl)-5-(1-methylpiperidin-3-yl)isoindolin-1-one]	> 10
O=C1NCc2cc(-c3cccnc3)c(-c3ccc(F)cc3F)cc21 [Compound 88, 6-(2,4-difluorophenyl)-5-(pyridin-3-yl)isoindolin-1-one]	1.65
O=C1NCc2cc(-c3ccc4ccncc4c3)c(-c3ccc(F)cc3)cc21 [Compound 15, 6-(4-fluorophenyl)-5-(isoquinolin-7-yl)isoindolin-1-one]	4.06
Cc1c(C#N)cccc1-c1cc2c(cc1-c1ccc(F)cc1F)C(=O)NC2 [Compound 109, 3-(6-(2,4-difluorophenyl)-1-oxoisoindolin-5-yl)-2-methylbenzonitrile]	1.13
CN(C)c1ncccc1-c1cc2c(cc1-c1ccc(F)cc1)C(=O)NC2 [Compound 39, 5-(2-(dimethylamino)pyridin-3-yl)-6-(4-fluorophenyl)isoindolin-1-one]	> 10
O=C1NCc2cc(-c3cccnc3N3CCCC3)c(-c3ccc(F)cc3F)cc21 [Compound 102, 6-(2,4-difluorophenyl)-5-(2-(pyrrolidin-1-yl)pyridin-3-yl)isoindolin-1-one]	> 10
O=C1NCc2cc(-c3ccc4scnc4c3)c(-c3ccc(F)cc3)cc21 [Compound 13, 5-(benzo[d]thiazol-5-yl)-6-(4-fluorophenyl)isoindolin-1-one]	0.161
O=C1NCc2cc(-c3cccnc3C(F)(F)F)c(-c3ccc(F)cc3F)cc21 [Compound 110, 6-(2,4-difluorophenyl)-5-(2-(trifluoromethyl)pyridin-3-yl)isoindolin-1-one]	> 10
O=C1NCc2cc(-c3cccnc3)c(-c3ccc(F)cc3)cc21 [Compound 44, 6-(4-fluorophenyl)-5-(pyridin-3-yl)isoindolin-1-one]	> 10
N#Cc1cc(F)cc(-c2cc3c(cc2-c2ccc(F)cc2F)C(=O)NC3)c1 [Compound 106, 3-(6-(2,4-difluorophenyl)-1-oxoisoindolin-5-yl)-5-fluorobenzonitrile]	1.42
O=C1NCc2cc(-c3ccc4ocnc4c3)c(-c3ccc(F)cc3)cc21 [Compound 12, 5-(benzo[d]oxazol-5-yl)-6-(4-fluorophenyl)isoindolin-1-one]	0.094
